Measured values published in the NIST ThermoML archive (doi:10.1021/je049657g).
± gives the expanded uncertainty stated by the source.

Details: 298.15 K, Liquid; for viscosity: 101 kPa, Capillary tube (Ostwald / Ubbelohde) method; for mass density: 101.33 kPa

Row | SMILES | viscosity [mPa·s] | mass density [kg/m3]
1 | O=C1CCCN1 [2-pyrrolidinone] | 13.19 ± 0.17 | 1106.82 ± 2
2 | CC(=O)N(C)C [N,N-dimethylethanamide] | 0.944 ± 0.008 | 936.54 ± 1.4
3 | CN1CCCC1=O [N-methylpyrrolidone] | 1.672 ± 0.014 | 1027.91 ± 1.6
4 | CN(C)C=O [dimethylformamide] | 0.804 ± 0.007 | 943.65 ± 1.5
